# Measured values published in patent US20210195905A1, “NATURAL COMPLEX PRESERVATIVE AGENT FOR GRAIN OR GRAIN PRODUCT” (BST Inc., priority 2019, published 2021).
# Test: DPPH radical scavenging (antioxidant activity)
# Type: biochemical
# Conditions: 0.2 mM DPPH, 30 minutes in the dark, absorbance 517 nm
row,SMILES,concentration for 50% scavenging of radical (SC50)
1,"COc1ccc(O)c(C(C)(C)C)c1 [BHA, Butylated Hydroxy Anisole]",58.83 µg/mL
2,O=C1O[C@H]([C@@H](O)CO)C(O)=C1O [L-ascorbic acid],49.95 µg/mL
